Measured values reported in ChEMBL document CHEMBL3046690, “Identification of an ISR-related metabolite produced by rhizobacterium Klebsiella oxytoca C1036 active against soft-rot disease pathogen in tobacco” (Pest Manag Sci, 2009).
Active and inactive are the calls of the source. The rule behind the calls is not given here.

Tests used:
Nicotiana tabacum [1] = test: (§1) Induction of systemic resistance (ISR) activity in Nicotiana tabacum (tobacco) seedlings against pectobacterium carotovorum subsp. carotovorum SCC1 assessed as decrease in disease symptoms on leaves applied to roots prior to leaf infection with SCC1 measured at 3 days after pathogen challenge; type: functional, organism-based
Nicotiana tabacum [2] = test: as §1, with “leaves at 12 mM” for “leaves”; type: functional, organism-based

Row | SMILES | Activity (Nicotiana tabacum [1]) | Activity (Nicotiana tabacum [2])
1 | CCCCOC(=O)[C@@H]1CCC(=O)N1 | Active | –
2 | CCCCOC(=O)C1CCC(=O)N1 (configuration not stated) | – | Active
